Values after ≈ are worked out from the molar mass of the structure shown. Read-outs that look alike come from different tables or passages of the source.
Key:
[1] = test system: S. pyogenes; test: In vitro MIC testing, antibacterial spectrum of activity; type: cell-based; conditions: Streptococcus pyogenes
[2] = test system: S. aureus; test: as above; type: cell-based, Staphylococcus aureus; conditions: Staphylococcus aureus
[3] = test system: S. pneumoniae; test: as above; type: cell-based, Streptococcus pneumoniae; conditions: Streptococcus pneumoniae, S. pneumoniae [PSSP] (32 isolates)
[4] = test system: Streptococcus spp. [Group C]; test: as above; type: cell-based; conditions: Streptococcus spp. [Group C] (30 isolates)
[5] = test system: S. agalactiae; test: as above; type: cell-based; conditions: Streptococcus agalactiae
[6] = test system: E. faecalis; test: as above; type: cell-based; conditions: Enterococcus faecalis
[7] = test system: methicillin-sensitive S. aureus (MSSA); test: In vitro MIC against isolates of MSSA; type: cell-based, Staphylococcus aureus; conditions: Staphylococcus aureus, MSSA (34 isolates)
[8] = test system: P. avidum; test: In vitro MIC testing, antibacterial spectrum of activity; type: cell-based; conditions: P. avidum [clinical isolates] (4 isolates)
[9] = test system: S. haemolyticus; test: as above; type: cell-based; conditions: Staphylococcus haemolyticus, S. haemolyticus (33 isolates)
[10] = test system: P. acnes; test: as above; type: cell-based, Propionibacterium acnes; conditions: Cutibacterium acnes
[11] = test system: hospital-associated methicillin-resistant S. aureus (MRSA-HA); test: In vitro MIC against isolates of MRSA-HA; type: cell-based, Staphylococcus aureus; conditions: Staphylococcus aureus; MRSA-HA (33 isolates)
[12] = test system: S. epidermidis; test: In vitro MIC testing, antibacterial spectrum of activity; type: cell-based, Staphylococcus epidermidis; conditions: Staphylococcus epidermidis; for MIC50: read-out: MIC50; for MIC90: read-out: MIC90
[13] = test system: E. faecium; test: as above; type: cell-based; conditions: Enterococcus faecium
[14] = test system: community-acquired methicillin-resistant S. aureus (MRSA-CA); test: In vitro MIC against isolates of MRSA-CA; type: cell-based, Staphylococcus aureus; conditions: Staphylococcus aureus; MRSA-CA (33 isolates)
[15] = test system: Helicobacter pylori; test: In vitro MIC against multiple isolates of H. pylori; type: cell-based
[16] = test system: Helicobacter pylori; conditions: H. pylori reference strain 3718, ATCC 43504; Clinical and Laboratory Standards Institute quality control range; cited from earlier work
[17] = test system: Chlamydia pneumoniae; test: Susceptibility testing (MIC, MBC) of 10 isolates of C. pneumoniae in HEp-2 cells; type: cell-based
[18] = test system: Chlamydia trachomatis; test: Susceptibility testing (MIC, MBC) of 10 isolates of C. trachomatis in HEp-2 cells; type: cell-based
[19] = test system: Chlamydia trachomatis; test: In vitro susceptibility testing of Chlamydia trachomatis in HEp-2 cells (first study); type: cell-based; conditions: Chlamydia trachomatis, C. trachomatis strains, read-out: MIC at which 90% of the strains were inhibited (MIC90)
[20] = S. epidermidis [MRSE] (32 isolates)
[21] = S. epidermidis [MSSE] (31 isolates)

CCC[C@@H]1C[C@@H](C(=O)N[C@@H]([C@H]2O[C@H](SC)[C@H](O)[C@@H](O)[C@H]2O)[C@H](C)Cl)N(C)C1 [Clindamycin] showed an MIC50 [1] of 0.03 µg/mL (≈ 0.0706 µM), an MIC90 [1] of 0.06 µg/mL (≈ 0.141 µM) and an MIC50 ([2]; MRSA) of 0.25 µg/mL (≈ 0.588 µM). The MIC90 ([2]; MRSA) was greater than 32 µg/mL, the MIC50 ([2]; MSSA) was 0.25 µg/mL (≈ 0.588 µM) and the MIC90 ([2]; MSSA) was greater than 32 µg/mL. The MIC50 ([3]; read-out: MIC50) was 0.03 µg/mL (≈ 0.0706 µM), the MIC90 ([3]; read-out: MIC90) was 0.06 µg/mL (≈ 0.141 µM) and the MIC50 ([4]; read-out: MIC50) was 0.06 µg/mL (≈ 0.141 µM). It also gave an MIC90 ([4]; read-out: MIC90) of 0.12 µg/mL (≈ 0.282 µM), an MIC50 [5] of 0.06 µg/mL (≈ 0.141 µM) and an MIC90 [5] greater than 16 µg/mL. It also gave an MIC50 [6] greater than 32 µg/mL, an MIC90 [6] greater than 32 µg/mL and an MIC50 [7] of 0.12 µg/mL (≈ 0.282 µM). For the same molecule, the MIC90 ([7]; read-out: MIC90) was greater than 32 µg/mL, the “MIC Range” value [8] was “≦0.06-0.5 μg/mL” and the MIC50 ([9]; read-out: MIC50) was 0.12 µg/mL (≈ 0.282 µM). For the same molecule, the MIC90 ([9]; read-out: MIC90) was 1 µg/mL (≈ 2.35 µM), the MIC50 ([10]; read-out: MIC50) was no more than 0.06 µg/mL and the MIC90 ([10]; read-out: MIC90) was 4 µg/mL (≈ 9.41 µM). For the same molecule, the MIC50 [11] was 2 µg/mL (≈ 4.71 µM), the MIC90 [11] was greater than 32 µg/mL and the MIC50 [12, 20] was greater than 32 µg/mL. It also gave an MIC90 [12, 20] greater than 32 µg/mL, an MIC50 [12, 21] of 0.12 µg/mL (≈ 0.282 µM) and an MIC90 [12, 21] greater than 32 µg/mL. The MIC50 [13] was greater than 32 µg/mL, the MIC90 [13] was greater than 32 µg/mL and the MIC50 ([13]; VRE) was greater than 32 µg/mL. For the same molecule, the MIC90 ([13]; VRE) was greater than 32 µg/mL, the MIC50 [14] was 0.12 µg/mL (≈ 0.282 µM) and the MIC90 [14] was 0.25 µg/mL (≈ 0.588 µM).
In the case of CC1(C)S[C@@H]2[C@H](NC(=O)[C@H](N)c3ccc(O)cc3)C(=O)N2[C@H]1C(=O)O [AMX, amoxicillin], the “MIC Range” value ([15]; H. pylori clinical isolate summary) is reported as 0.015 to 0.12 µg/mL, the MIC ([15]; H. pylori clinical isolate, culture No. 4368) is reported as 0.06 µg/mL (≈ 0.164 µM) and the MIC ([15]; H. pylori clinical isolate, culture No. 4369) is reported as 0.12 µg/mL (≈ 0.328 µM). It also gave an MIC ([15]; H. pylori clinical isolate, culture No. 4370) of 0.12 µg/mL (≈ 0.328 µM), an MIC ([15]; H. pylori clinical isolate, culture No. 4371) of 0.12 µg/mL (≈ 0.328 µM) and an MIC ([15]; H. pylori clinical isolate, culture No. 4372) of 0.015 µg/mL (≈ 0.041 µM). For the same molecule, the MIC ([15]; H. pylori clinical isolate, culture No. 4374) was 0.015 µg/mL (≈ 0.041 µM), the MIC ([15]; H. pylori clinical isolate, culture No. 4375) was 0.12 µg/mL (≈ 0.328 µM) and the MIC ([15]; H. pylori clinical isolate, culture No. 4377) was 0.015 µg/mL (≈ 0.041 µM). It also gave an MIC ([15]; H. pylori clinical isolate, culture No. 4503) of 0.03 µg/mL (≈ 0.0821 µM), an MIC ([15]; H. pylori clinical isolate, culture No. 4504) of 0.015 µg/mL (≈ 0.041 µM) and an MIC ([15]; H. pylori reference strain, culture No. 3718, ATCC 43504) of 0.03 µg/mL (≈ 0.0821 µM). It also gave an MIC ([15]; H. pylori reference strain, culture No. 3719, ATCC 700824) of 0.015 µg/mL (≈ 0.041 µM), an MIC ([15]; H. pylori reference strain, culture No. 3720, ATCC BAA-945) of 0.06 µg/mL (≈ 0.164 µM) and an MIC50 ([15]; H. pylori, MIC for 50% of clinical test isolates) of 0.03 µg/mL (≈ 0.0821 µM). The MIC90 ([15]; H. pylori, MIC for 90% of clinical test isolates) was 0.12 µg/mL (≈ 0.328 µM) and the “MIC, CLSI Quality Control Range” value [16] was “(0.015-0.12) μg/mL”.
For CC[C@H]1OC(=O)[C@H](C)[C@@H](O[C@H]2C[C@@](C)(OC)[C@@H](O)[C@H](C)O2)[C@H](C)[C@@H](O[C@@H]2O[C@H](C)C[C@H](N(C)C)[C@H]2O)[C@](C)(O)C[C@@H](C)CN(C)[C@H](C)[C@@H](O)[C@]1(C)O [Azithromycin], the “MIC Range” value ([17]; 72 h) was 0.03 to 0.0625 µg/mL, the MIC50 ([17]; Chlamydia pneumoniae, 72 h) was 0.0625 µg/mL (≈ 0.0834 µM) and the MIC90 ([17]; Chlamydia pneumoniae, 72 h) was 0.0625 µg/mL (≈ 0.0834 µM). The MBC ([17]; Chlamydia pneumoniae, after passage, read-out: MBC 90%) was 0.25 µg/mL (≈ 0.334 µM), the “MBC 90%” value ([17]; after passage) was 0.25 µg/mL (≈ 0.334 µM) and the “MBC Range” value ([17]; after passage) was 0.0625 to 0.25 µg/mL. The “MIC Range” value ([18]; 72 h) was 0.003 to 0.03 µg/mL, the MIC50 ([18]; Chlamydia trachomatis, 72 h) was 0.0075 µg/mL (≈ 0.01 µM) and the MIC90 ([18]; Chlamydia trachomatis, 72 h) was 0.015 µg/mL (≈ 0.02 µM). The MBC ([18]; Chlamydia trachomatis, after passage, read-out: MBC 90%) was 0.015 µg/mL (≈ 0.02 µM), the “MBC Range” value ([18]; after passage) was 0.007 to 0.03 µg/mL and the MIC90 [19] was 0.015 µg/mL (≈ 0.02 µM).

Source: patent publication US20130302442A1, “METHODS OF USING (4S,4AS,5AR,12AS)-4-DIMETHYLAMINO-3,10,12,12A-TETRAHYDROXY-7-[(METHOXY(METHYL)AMINO)-METHYL]-1,11-DIOXO-1,4,4A,5,5A,6,11,12A-OCTAHYDRO-NAPHTHACENE-2-CARBOXYLIC ACID AMIDE” (priority 2012, published 2013)
